These results are taken from US20260248769A1, “URINATION DISORDER-A[…]” (priority 2023, published 2026).

The test system of one data set is normal rats. The data set can be described thus: Uroflowmetry (urine flow rate measurement) in normal rats. The class given is in vivo, rat. The following applies: normal male rats, subcutaneous, measured for 12 hours; acotiamide 30, 100, 200 mg/kg, distigmine 0.1 mg/kg (FIG. 5). How it is done: Changes in urine flow rate when distigmine (0.1 mg/kg), acotiamide (30, 100, and 200 mg/kg) or vehicle was subcutaneously administered (5 mL/kg) to male rats (strain: Crl:CD (SD), 8 weeks old, Jackson Laboratory Japan, Inc.) were measured for 12 hours. Changes in urine flow rate were recorded using PowerLab (ADInstruments) by placing a digital balance under the voiding measurement cage to cumulatively collect excreted urine in a container on the balance and measure the change in weight.

Another data set relates to urethra of normal rats. Put plainly: Measurement of LPP (urethral pressure) in normal rats. In kind it is in vivo, rat. The following applies: spinal cord transected female rats, subcutaneous; acotiamide 30 to 300 mg/kg, distigmine 0.1 mg/kg, bethanechol 3 mg/kg (FIG. 7). On the procedure: Using female rats (strain: Crl:CD (SD), 9 weeks old, Jackson Laboratory Japan, Inc.), under isoflurane anesthesia, the spinal cord was transected at the Th8 vertebra, and after ligating and excising the ureters, a catheter (Becton Dickinson: PE-90, PE-50) was inserted and fixed at the bladder dome to prepare the measurement animal. Physiological saline was injected from the catheter, and the maximum intravesical pressure (leak point pressure (LPP)) when leaking from the external urethral opening was recorded by PowerLab (ADInstruments). Changes in leak point pressure when distigmine (0.1 mg/kg), bethanechol (3 mg/kg), acotiamide (30 to 300 mg/kg), or a vehicle was subcutaneously administered (5 mL/kg) were measured.

Data set [1] relates to bladder M3 receptor (Chrm3). The data set can be described thus: Bladder M3 receptor expression (real-time PCR Chrm3, Western blotting CHRM3) after repeated administration. The class given is in vivo, rat. To be noted: subcutaneous twice daily for two weeks; for Relative gene expression of Chrm3 (Mean ± SE): bladder of normal male rats, real-time PCR, acotiamide 200 mg/kg/day, distigmine 0.2 mg/kg/day; for expression level of the bladder M3 receptor after repeated administration: normal male rats, acotiamide 100 mg/kg, distigmine 0.1 mg/kg per dose (Table 1, FIG. 13). How it is done:
Distigmine (0.1 mg/kg), acotiamide (100 mg/kg), or vehicle was subcutaneously administered twice daily for two weeks (5 mL/kg per dose) to normal rats (male, strain: Crl:CD (SD), 8 weeks old, Jackson Laboratory Japan, Inc.), and the bladder was collected. The M3 receptor expression level in the collected bladder was examined by gene quantitative analysis by real-time PCR (Chrm3) and protein expression analysis by Western blotting (CHRM3).

Data set [2] deals with bladder of normal guinea pigs. The data set can be described thus: Cystometry and urine flow rate measurement in normal guinea pigs. In kind it is in vivo, guinea pig. To be noted: male guinea pigs, intravenous, 0 to 30 minutes, acotiamide 0.1 to 10 mg/kg; for bladder contraction pressure during voiding: distigmine 1 mg/kg (FIG. 8); for maximum contraction pressure during voiding: distigmine 1 mg/kg (FIG. 9); for urine flow rate (maximum urine flow rate and average urine flow rate): distigmine 1 mg/kg (FIG. 10, FIG. 11). On the procedure:
A polyethylene catheter (Becton Dickinson: PE50) was inserted into and fixed to the bladder of a guinea pig (male, strain: Slc: Hartley, 7 weeks old, Japan SLC, Inc.). A catheter indwellingly placed in the bladder was connected to a pressure transducer to measure intravesical pressure. Physiological saline was injected into the bladder using an infusion pump and intravesical pressure was recorded in PowerLab (ADInstruments). The urine flow rate was recorded in PowerLab (ADInstruments) by placing a digital balance under the cage to cumulatively collect excreted urine in a container on the balance and measure the change in weight. Changes in the detrusor muscle contraction pressure and the urine flow rate when distigmine (1 mg/kg), acotiamide (0.1 to 10 mg/kg), or a vehicle was intravenously administered (1 mL/kg) were measured for 30 minutes.

Data set [3] deals with female rats under urethane anesthesia. Put plainly: Test for confirming tolerability: induction of cholinergic crisis. The class given is in vivo, rat. To be noted: up to 120 minutes; for induction of cholinergic crisis (hypersecretion, respiratory abnormalities): urethane anesthesia, subcutaneous, distigmine 0.1-0.4 mg/kg, acotiamide 200 and 300 mg/kg.
Data set [4] deals with patients with underactive bladder. The following applies: in combination with an α1-receptor blocker, cited from earlier work.
The test system of another data set is bladder of normal rats. Put plainly: Cystometry (detrusor muscle contraction pressure measurement) in normal rats. In kind it is in vivo. The following applies: normal male rats, subcutaneous; for bladder contraction pressure during voiding / maximum contraction pressure during voiding: 0 to 90 minutes after administration, acotiamide 30 to 200 mg/kg; for bladder contraction pressure during voiding: distigmine 0.01 to 0.1 mg/kg (FIG. 3); for maximum contraction pressure during voiding: distigmine 0.01 to 0.1 mg/kg (FIG. 4); for bladder compliance: 0 to 90 minutes, acotiamide up to 200 mg/kg, distigmine 0.01 to 0.1 mg/kg (FIG. 6); for tolerability in the cystometry test at the highest dose: highest dose acotiamide 200 mg/kg, distigmine 0.3 mg/kg. How it is done:
A polyethylene catheter (PE50) for cystometry was inserted into and indwellingly placed in the bladder of male rats (strain: Crl:CD (SD), 8 weeks old, Jackson Laboratory Japan, Inc.). The catheter indwelling in the bladder was connected to a pressure transducer (Nihon Kohden Corporation) to measure the intravesical pressure. Physiological saline was injected into the bladder using an infusion pump, and changes in intravesical pressure were recorded on a polygraph system (RMT-1000, Nihon Kohden Corporation) and an analysis system (Lab Chart Pro, ADInstruments). Changes in detrusor muscle contraction pressure when distigmine (0.01 to 0.3 mg/kg), acotiamide (3 to 200 mg/kg), or vehicle was subcutaneously administered (5 ml/kg) were measured for 90 minutes.

Data set [5] deals with partial BOO rats exhibiting overactive bladder. The data set can be described thus: Cystometry in partial bladder outlet obstruction (BOO) rats: voiding interval and frequency of NVC. The class given is in vivo, rat. To be noted: for NVC frequency compared with the β3 agonist single administration group: co-administered with mirabegron 3 mg/kg i.v., distigmine 0.1 mg/kg or acotiamide 200 mg/kg s.c. (FIG. 15); for voiding interval, effect of a single agent: up to 2 hours, distigmine 0.1 mg/kg s.c., acotiamide 100 and 200 mg/kg s.c., mirabegron 3 mg/kg i.v. (FIG. 14). How it is done:
Under isoflurane anesthesia, female rats (strain: Crl:CD (SD), 6 weeks old, Jackson Laboratory Japan, Inc.) were subjected to bladder outlet obstruction surgery to prepare partial bladder outlet obstruction (BOO) rats. The sham-operated group was operated similarly except for the partial BOO. Six weeks after surgery, cystometry was performed while awake. A polyethylene catheter (Becton Dickinson: PE50) for cystometry was inserted into and indwellingly placed in the bladder. The catheter indwelling in the bladder was connected to a pressure transducer (Nihon Kohden Corporation) to measure the intravesical pressure. Physiological saline was injected into the bladder using a syringe pump and changes in intravesical pressure were recorded in PowerLab (ADInstruments).
Distigmine (0.1 mg/kg), acotiamide (100 and 200 mg/kg) or vehicle was subcutaneously administered (5 ml/kg), or a β3-adrenergic receptor agonist (β3 agonist mirabegron, a therapeutic agent for overactive bladder) (3 mg/kg) was intravenously administered (1 mL/kg), and the voiding interval was measured for up to 2 hours.
The β3 agonist mirabegron (3 mg/kg, intravenous administration [1 mL/kg]) was co-administered with distigmine (0.1 mg/kg) or acotiamide (200 mg/kg) by subcutaneous administration (5 mL/kg), and the frequency of NVC was measured.

Data set [6] has as its system pelvic nerve crush (PNC) rats. The data set can be described thus: Cystometry in underactive bladder model (pelvic nerve crush, PNC) rats. The class given is in vivo, rat. To be noted: PNC female rats, subcutaneous; for detrusor muscle contraction pressure: awake, measured for 60 minutes, acotiamide 30 to 200 mg/kg, distigmine 0.1 mg/kg (FIG. 12); for drug tolerability at the highest dose: highest dose acotiamide 200 mg/kg, distigmine 0.3 mg/kg. On the procedure: Under isoflurane anesthesia, female rats (strain: Crl:CD (SD), 8 weeks old, Jackson Laboratory Japan, Inc.) were subjected to pelvic nerve injury surgery to prepare pelvic nerve crush (PNC) rats. Cystometry was performed while awake, 2 to 4 weeks after surgery. A polyethylene catheter (PE50) for cystometry was inserted into the bladder and indwellingly placed. The catheter indwelling in the bladder was connected to a pressure transducer (Nihon Kohden Corporation) to measure the intravesical pressure. Physiological saline was injected into the bladder using an infusion pump, and changes in intravesical pressure were recorded in a polygraph system (RMT-1000, Nihon Kohden Corporation) (RMT-1000 MG, Miyuki Giken Co., Ltd.) and an analysis system (Lab Chart Pro, ADInstruments).
Changes in detrusor muscle contraction pressure when distigmine (0.01 to 0.3 mg/kg), acotiamide (3 to 200 mg/kg), or vehicle was subcutaneously administered (5 mL/kg) to PNC rats were measured for 60 minutes.

Each structure is given as a SMILES string.

In the case of `COc1cc(O)c(C(=O)Nc2nc(C(=O)NCCN(C(C)C)C(C)C)cs2)cc1OC` [Acotiamide, N-[2-[bis(1-methylethyl)amino]ethyl]-2-[(2-hydroxy-4,5-dimethoxybenzoyl)amino]thiazole-4-carboxamide], the urine flow rate entry in the data set on normal rats is recorded as “increasing”. Further, the “leak point pressure (urethral pressure)” value in the data set on urethra of normal rats is “did not change”. In addition, in data set [1], the “Relative gene expression of Chrm3 (Mean ± SE)” value was found to be 107.0 ± 12.9 and the “expression level of the bladder M3 receptor after repeated administration” value was “did not reduce”. Further, in [2], the “bladder contraction pressure during voiding” value is “increased”; the “maximum contraction pressure during voiding” value is listed as “increased”; the “urine flow rate (maximum urine flow rate and average urine flow rate)” value is recorded as “increasing”. In addition, the death cases entry in data set [3] (200 and 300 mg/kg subcutaneous) is given as “no death cases”. In addition, the “induction of cholinergic crisis (hypersecretion, respiratory abnormalities)” value in data set [3] is recorded as “did not induce”. For the same molecule, the “decrease in residual urine volume” value in data set [4] (100 mg orally 3 times a day for 2 weeks) is recorded as “a sufficient decrease in residual urine volume was not obtained”. The “mean value of residual urine volume after administration” value in data set [4] (100 mg orally three times a day for two weeks) is no less than 100 mL. In the data set on bladder of normal rats, the “bladder contraction pressure during voiding” value is recorded as “increased”, the “maximum contraction pressure during voiding” value is listed as “increased”, the bladder compliance entry is “did not affect” and the “tolerability in the cystometry test at the highest dose” value is on record as “well tolerated”. For the same molecule, in the data set on bladder of normal rats (200 mg/kg), the “action on bladder contraction pressure, 200 mg/kg group compared with 30 and 100 mg/kg groups” value was “extremely strong”. Also, in data set [5], the “NVC frequency compared with the β3 agonist single administration group” value is “similar” and the “voiding interval, effect of a single agent” value (from here on “voiding interval, effect”) is given as “had no effect”. Also, in data set [6], the “detrusor muscle contraction pressure” value is “increased” and the “drug tolerability at the highest dose” value is on record as “good tolerability”. In addition, in data set [6] (200 mg/kg), the “action on the detrusor muscle contraction pressure, 200 mg/kg group compared with 30 and 100 mg/kg groups” value was “extremely strong”.

For `CN(CCCCCCN(C)C(=O)Oc1ccc[n+](C)c1)C(=O)Oc1ccc[n+](C)c1` [Distigmine], the urine flow rate entry with normal rats was “decreased”. In addition, in the data set with urethra of normal rats, the “leak point pressure (urethral pressure)” value is “did not change”. For the same molecule, in data set [1], the “Relative gene expression of Chrm3 (Mean ± SE)” value stood at 79.1 ± 11.8 and the “expression level of the bladder M3 receptor after repeated administration” value is listed as “reduced”. Besides, in data set [2], the “bladder contraction pressure during voiding” value is on record as “increased”; the “maximum contraction pressure during voiding” value is listed as “increased”; the “urine flow rate (maximum urine flow rate and average urine flow rate)” value is recorded as “decreased”. Moreover, in data set [3] (0.2 mg/kg subcutaneous), the “death (animals)” value is given as 1 out of 3. For the same molecule, the “death (animals)” value in data set [3] (0.3 mg/kg subcutaneous) is listed as 5 out of 6. Moreover, the “death (animals)” value in data set [3] (0.4 mg/kg subcutaneous) is reported as 3 out of 3. Besides, in [3], the “induction of cholinergic crisis (hypersecretion, respiratory abnormalities)” value is listed as “induced”. In addition, in the data set on bladder of normal rats, the “bladder contraction pressure during voiding” value is recorded as “increased”, the “maximum contraction pressure during voiding” value is on record as “increased”, the bladder compliance entry is listed as “significantly reduced” and the “tolerability in the cystometry test at the highest dose” value is “induced cholinergic crisis”. Besides, in data set [5], the “NVC frequency compared with the β3 agonist single administration group” value is listed as “increased” and the “voiding interval, effect” value was “significantly shortened”. Besides, in data set [6], the “detrusor muscle contraction pressure” value is on record as “increased” and the “drug tolerability at the highest dose” value was “cholinergic crisis”.

Consider `CC(C[N+](C)(C)C)OC(N)=O` (stereo not drawn) [bethanechol], for which the “leak point pressure (urethral pressure)” value in the data set on urethra of normal rats was “increase”.

Turning to `Nc1nc(CC(=O)Nc2ccc(CCNC[C@H](O)c3ccccc3)cc2)cs1` [mirabegron], the “voiding interval, effect” value in data set [5] is “had no effect”.
